From ChEMBL document CHEMBL3885881, “DrugMatrix”

Organism: Rattus norvegicus
Experiment: DrugMatrix - Regimen: Daily Repeat
Format: toxicity, organism-based, Sprague-Dawley
Parameters: regimen Daily Repeat, gender Male, age 6-8 weeks
Conditions: in vivo, po, 400 mg/kg, route oral GAVAGE, dose level High, […]; for ABSOLUTE BASOPHIL / ABSOLUTE EOSINOPHIL / ABSOLUTE LYMPHOCYTE / ABSOLUTE MONOCYTE / ABSOLUTE SEGMENTED NEUTROPHIL / BASOPHIL / EOSINOPHIL / ERYTHROCYTE COUNT / HEMATOCRIT / HEMOGLOBIN / LEUKOCYTE COUNT / LYMPHOCYTE / MEAN CORPUSCULAR HEMOGLOBIN / MEAN CORPUSCULAR HEMOGLOBIN CONCENTRATION / MEAN CORPUSCULAR VOLUME / MONOCYTE / NEUTROPHIL / NUCLEATED RED BLOOD CELLS / PLATELET COUNT: tissue Blood; for ALANINE AMINOTRANSFERASE / ALBUMIN / ALKALINE PHOSPHATASE / ASPARTATE AMINOTRANSFERASE / BLOOD UREA NITROGEN / CARBON DIOXIDE / CHLORIDE / CHOLESTEROL / CREATINE PHOSPHOKINASE / CREATININE / GLUCOSE / LACTATE DEHYDROGENASE / LIPASE / PHOSPHORUS / POTASSIUM / SODIUM / TOTAL BILIRUBIN / TOTAL PROTEIN / URIC ACID: tissue Plasma

COC(=O)[C@H](c1ccccc1Cl)N1CCc2sccc2C1 [CLOPIDOGREL]
ABSOLUTE BASOPHIL (72 h, time 3 day): 0 CELLS/uL
ABSOLUTE EOSINOPHIL (72 h, time 3 day): 86.67 CELLS/uL
ABSOLUTE LYMPHOCYTE (72 h, time 3 day): 12550.67 CELLS/uL
ABSOLUTE MONOCYTE (72 h, time 3 day): 229.67 CELLS/uL
ABSOLUTE SEGMENTED NEUTROPHIL (72 h, time 3 day): 1366.33 CELLS/uL
BASOPHIL (72 h, time 3 day): 0%
EOSINOPHIL (72 h, time 3 day): 0.67%
ERYTHROCYTE COUNT (72 h, time 3 day): 5.22 x10E6/uL
HEMATOCRIT (72 h, time 3 day): 31.7%
HEMOGLOBIN (72 h, time 3 day): 12.8 G/DL
LEUKOCYTE COUNT (72 h, time 3 day): 14.23 x10E3/uL
LYMPHOCYTE (72 h, time 3 day): 88%
MEAN CORPUSCULAR HEMOGLOBIN (72 h, time 3 day): 24.5 pg
MEAN CORPUSCULAR HEMOGLOBIN CONCENTRATION (72 h, time 3 day): 40.4 G/DL
MEAN CORPUSCULAR VOLUME (72 h, time 3 day): 60.77 fL
MONOCYTE (72 h, time 3 day): 1.67%
NEUTROPHIL (72 h, time 3 day): 9.67%
NUCLEATED RED BLOOD CELLS (72 h, time 3 day): 0 /100WBC
PLATELET COUNT (72 h, time 3 day): 1169.33 x10E3/uL
ALANINE AMINOTRANSFERASE (72 h, time 3 day): 98.67 u/L
ALBUMIN (72 h, time 3 day): 3.97 G/DL
ALKALINE PHOSPHATASE (72 h, time 3 day): 463 u/L
ASPARTATE AMINOTRANSFERASE (72 h, time 3 day): 113 u/L
BLOOD UREA NITROGEN (72 h, time 3 day): 13.67 mg/dL
CARBON DIOXIDE (72 h, time 3 day): 27.67 mmol/L
CHLORIDE (72 h, time 3 day): 102.67 MEQ/L
CHOLESTEROL (72 h, time 3 day): 80 mg/dL
CREATINE PHOSPHOKINASE (72 h, time 3 day): 460.67 u/L
CREATININE (72 h, time 3 day): 0.21 mg/dL
GLUCOSE (72 h, time 3 day): 145 mg/dL
LACTATE DEHYDROGENASE (72 h, time 3 day): 361 u/L
LIPASE (72 h, time 3 day): 14.33 u/L
PHOSPHORUS (72 h, time 3 day): 10.53 mg/dL
POTASSIUM (72 h, time 3 day): 6.16 MEQ/L
SODIUM (72 h, time 3 day): 141.23 MEQ/L
TOTAL BILIRUBIN (72 h, time 3 day): 0.23 mg/dL
TOTAL PROTEIN (72 h, time 3 day): 5.47 G/DL
URIC ACID (72 h, time 3 day): 1.13 mg/dL
ABSOLUTE BASOPHIL (120 h, time 5 day): 0 CELLS/uL
ABSOLUTE EOSINOPHIL (120 h, time 5 day): 131.33 CELLS/uL
ABSOLUTE LYMPHOCYTE (120 h, time 5 day): 15650.33 CELLS/uL
ABSOLUTE MONOCYTE (120 h, time 5 day): 297.33 CELLS/uL
ABSOLUTE SEGMENTED NEUTROPHIL (120 h, time 5 day): 2887.67 CELLS/uL
BASOPHIL (120 h, time 5 day): 0%
EOSINOPHIL (120 h, time 5 day): 0.67%
ERYTHROCYTE COUNT (120 h, time 5 day): 5.21 x10E6/uL
HEMATOCRIT (120 h, time 5 day): 31.5%
HEMOGLOBIN (120 h, time 5 day): 12.6 G/DL
LEUKOCYTE COUNT (120 h, time 5 day): 18.97 x10E3/uL
LYMPHOCYTE (120 h, time 5 day): 84%
MEAN CORPUSCULAR HEMOGLOBIN (120 h, time 5 day): 24.17 pg
MEAN CORPUSCULAR HEMOGLOBIN CONCENTRATION (120 h, time 5 day): 40 G/DL
MEAN CORPUSCULAR VOLUME (120 h, time 5 day): 60.37 fL
MONOCYTE (120 h, time 5 day): 1.67%
NEUTROPHIL (120 h, time 5 day): 13.67%
NUCLEATED RED BLOOD CELLS (120 h, time 5 day): 0 /100WBC
PLATELET COUNT (120 h, time 5 day): 1167.67 x10E3/uL
ALANINE AMINOTRANSFERASE (120 h, time 5 day): 76 u/L
ALBUMIN (120 h, time 5 day): 3.8 G/DL
ALKALINE PHOSPHATASE (120 h, time 5 day): 362.67 u/L
ASPARTATE AMINOTRANSFERASE (120 h, time 5 day): 110.67 u/L
BLOOD UREA NITROGEN (120 h, time 5 day): 16.33 mg/dL
CARBON DIOXIDE (120 h, time 5 day): 26 mmol/L
CHLORIDE (120 h, time 5 day): 101 MEQ/L
CHOLESTEROL (120 h, time 5 day): 86.67 mg/dL
CREATINE PHOSPHOKINASE (120 h, time 5 day): 941 u/L
CREATININE (120 h, time 5 day): 0.15 mg/dL
GLUCOSE (120 h, time 5 day): 135 mg/dL
LACTATE DEHYDROGENASE (120 h, time 5 day): 452.33 u/L
LIPASE (120 h, time 5 day): 12.33 u/L
PHOSPHORUS (120 h, time 5 day): 12.5 mg/dL
POTASSIUM (120 h, time 5 day): 5.63 MEQ/L
SODIUM (120 h, time 5 day): 141.87 MEQ/L
TOTAL BILIRUBIN (120 h, time 5 day): 0.2 mg/dL
TOTAL PROTEIN (120 h, time 5 day): 5.4 G/DL
URIC ACID (120 h, time 5 day): 1.1 mg/dL
